Test results: patent publication US8962608B2, “Cycloalkylnitrile pyrazole carboxamides as janus kinase inhibitors” (Merck Sharp & Dohme Corp., priority 2011, dated 2015)

Tests used:
[1] = target: JAK2 (recombinant purified GST-tagged catalytic domain) (Homo sapiens (Human), UniProt O60674); test: biochemical;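 also: biochemical JAK kinase assay with HTRF detection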
[2] = target: JAK1 (recombinant purified GST-tagged catalytic domain) (Homo sapiens (Human), UniProt P23458); test: biochemical;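 also: biochemical assay with HTRF read-out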
Sequence of JAK1 (recombinant purified GST-tagged catalytic domain) (P23458 875-1153): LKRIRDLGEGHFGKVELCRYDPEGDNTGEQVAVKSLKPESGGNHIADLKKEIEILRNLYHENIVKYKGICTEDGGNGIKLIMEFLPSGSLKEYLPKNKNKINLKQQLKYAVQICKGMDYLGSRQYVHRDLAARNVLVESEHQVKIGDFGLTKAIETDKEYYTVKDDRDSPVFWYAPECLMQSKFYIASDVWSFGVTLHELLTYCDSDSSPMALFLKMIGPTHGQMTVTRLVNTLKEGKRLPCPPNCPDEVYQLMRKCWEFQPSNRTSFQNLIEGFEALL

Sequence of JAK2 (recombinant purified GST-tagged catalytic domain) (O60674 849-1124): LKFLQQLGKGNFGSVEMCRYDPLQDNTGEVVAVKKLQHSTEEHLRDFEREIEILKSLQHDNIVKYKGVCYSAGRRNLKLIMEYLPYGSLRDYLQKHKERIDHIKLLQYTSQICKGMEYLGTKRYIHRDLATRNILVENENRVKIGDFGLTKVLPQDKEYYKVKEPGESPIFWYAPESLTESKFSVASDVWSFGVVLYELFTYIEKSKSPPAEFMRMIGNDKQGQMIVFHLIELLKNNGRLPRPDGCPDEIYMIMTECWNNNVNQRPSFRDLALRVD

How did the IC50 [1] turn out when `N#C[C@H]1CCCC[C@@H]1n1cc(C(N)=O)c(Nc2ccc(S(=O)(=O)Nc3ccncc3)cc2)n1` (single isomer, unassigned) [Example 17-81, 1-[(1R,2R or 1S,2S)-2-cyanocyclohexyl]-3-{[4-(pyridin-4-ylsulfamoyl)phenyl]amino}-1H-pyrazole-4-carboxamide] was run?
The IC50 was 2 nM.

What about the IC50 [2] of the same compound?
The IC50 was 0.35 nM.

How did the IC50 [1] turn out when `N#C[C@H]1C[C@@H](NCc2ccccc2)CC[C@@H]1n1cc(C(N)=O)c(Nc2ccnc(F)c2)n1` (single isomer, unassigned) [Example 28-97, 1-[(1S,2S,4S or 1R,2R,4R)-4-(benzylamino)-2-cyanocyclohexyl]-3-[(2-fluoropyridin-4-yl)amino]-1H-pyrazole-4-carboxamide] was run?
Its IC50 is 9 nM.

And the IC50 [2]?
The IC50 was 0.3 nM.

Which results are given for `N#C[C@@H]1CCCC[C@H]1n1cc(C(N)=O)c(Nc2ccc(S(=O)(=O)NCC3CC3)cc2)n1` (single isomer, unassigned) [Example 17-66, 1-[(1R,2R or 1S,2S)-2-cyanocyclohexyl]-3-({4-[(cyclopropylmethyl)sulfamoyl]phenyl}amino)-1H-pyrazole-4-carboxamide]?
IC50 [1]: 1 nM; IC50 [2]: 0.33 nM

What does the source list for `CS(=O)(=O)C1CN(C(=O)[C@@H]2CC[C@@H](n3cc(C(N)=O)c(Nc4ccc(Cl)cc4)n3)[C@H](C#N)C2)C1` (single isomer, unassigned) [Example 35-8, 3-[(4-chlorophenyl)amino]-1-[(1R,2R,4R or 1S,2S,4S)-2-cyano-4-{[3-(methylsulfonyl)azetidin-1-yl]carbonyl}cyclohexyl]-1H-pyrazole-4-carboxamide]?
IC50 [1]: 19 nM; IC50 [2]: 3 nM

Which results are given for `CN(C1COC1)[C@H]1CC[C@@H](n2cc(C(N)=O)c(Nc3ccc(C(F)(F)F)cc3)n2)[C@H](C#N)C1` (single isomer, unassigned) [Example 30-1, 1-{(1R,2R,4S or 1S,2S,4R)-2-Cyano-4-[methyl(oxetan-3-yl)amino]cyclohexyl}-3-{[4-(trifluoromethyl)phenyl]amino}-1H-pyrazole-4-carboxamide]?
IC50 [1]: 106 nM; IC50 [2]: 9 nM

Which IC50 [1] does the source give for `N#C[C@H]1CCC[C@H](O)C1n1cc(C(N)=O)c(Nc2ccccc2)n1` (mixture of isomers) [Example 2-7, 1-[(1R,2S,6S and 1S,2R,6R)-2-cyano-6-hydroxycyclohexyl]-3-(phenylamino)-1H-pyrazole-4-carboxamide] here?
Its IC50 is 320 nM.

And the IC50 [2]?
The IC50 was 170 nM.

For `C[C@H](NC1CC[C@H](n2cc(C(N)=O)c(Nc3ccc(C(F)(F)F)cc3)n2)[C@@H](C#N)C1)C1CC1` (single isomer, unassigned) [Example 28-191, 1-[(1S,2S or 1R,2R)-2-cyano-4-{[(1S)-1-cyclopropylethyl]amino}cyclo-hexyl]-3-{[4-(trifluoromethyl)phenyl]amino}-1H-pyrazole-4-carboxamide], which IC50 [1] is on record?
The IC50 was 104 nM.

And the IC50 [2]?
Its IC50 is 0.9 nM.

What does the source list for `N#C[C@@H]1CCCC[C@H]1n1cc(C(N)=O)c(Nc2ccc(C(F)F)nc2)n1` (single isomer, unassigned) [Example 17-55, 1-[(1R,2R or 1S,2S)-2-cyanocyclohexyl]-3-{[6-(difluoromethyl)pyridin-3-yl]amino}-1H-pyrazole-4-carboxamide]?
IC50 [1]: 255 nM; IC50 [2]: 41 nM

`N#C[C@H]1CCCC[C@@H]1n1cc(C(N)=O)c(Nc2ccc(C(F)(F)F)nc2)n1` (single isomer, unassigned) [Example 17-109, 1-[(1S,2S or 1R,2R)-2-cyanocyclohexyl]-3-{[6-(trifluoromethyl)pyridin-3-yl]amino}-1H-pyrazole-4-carboxamide] was tested. Which IC50 [1] did it give?
Its IC50 is 260 nM.

And the IC50 [2]?
The IC50 was 50 nM.

For `N#C[C@H]1C[C@H](NCC2(O)CC2)CC[C@@H]1n1cc(C(N)=O)c(Nc2ccc(C(F)(F)F)cc2)n1` (single isomer, unassigned) [Example 28-35, 1-[(1S,2S,4R or 1R,2R,4S)-2-cyano-4-{[(1-hydroxycyclo-propyl)methyl]amino}cyclo-hexyl]-3-{[4-(trifluoro-methyl)phenyl]amino}-1H-pyrazole-4-carboxamide], which IC50 [1] is on record?
Its IC50 is 48 nM.

And the IC50 [2]?
The IC50 was 1 nM.

For `N#C[C@H]1C[C@@H](N2CCC2)CC[C@@H]1n1cc(C(N)=O)c(Nc2ccc(Cl)cc2)n1` (single isomer, unassigned) [Example 28-100, 1-[(1S,2S,4S or 1R,2R,4R)-4-azetidin-1-yl-2-cyanocyclohexyl]-3-[(4-chlorophenyl)amino]-1H-pyrazole-4-carboxamide], which IC50 [1] is on record?
Its IC50 is 41 nM.

What about the IC50 [2] of the same compound?
The IC50 was 0.7 nM.

What does the source list for `N#C[C@H]1CCCC[C@@H]1n1cc(C(N)=O)c(Nc2ccc(S(=O)(=O)NCc3ccccn3)cc2)n1` (single isomer, unassigned) [Example 17-85, 1-[(1R,2R or 1S,2S)-2-cyanocyclohexyl]-3-({4-[(pyridin-2-ylmethyl)sulfamoyl]phenyl}amino)-1H-pyrazole-4-carboxamide]?
IC50 [1]: 4 nM; IC50 [2]: 0.9 nM

For `C[C@H](N[C@@H]1CC[C@H](n2cc(C(N)=O)c(Nc3ccc(Cl)cc3)n2)[C@@H](C#N)C1)C1CC1` (single isomer, unassigned) [Example 28-98, 3-[(4-chlorophenyl)amino]-1-[(1S,2S,4R or 1R,2R,4S)-2-cyano-4-{[(1S)-1-cyclopropylethyl]amino}cyclo-hexyl]-1H-pyrazole-4-carboxamide], which IC50 [1] is on record?
The IC50 was 216 nM.

What about the IC50 [2] of the same compound?
Its IC50 is 4 nM.

Which results are given for `CS(=O)(=O)N[C@@H]1CC[C@H](n2cc(C(N)=O)c(Nc3ccc(Cl)cc3)n2)[C@@H](C#N)C1` (racemic) [Example 38-3, 3-[(4-chlorophenyl)amino]-1-{(1S,2S,4R and 1R,2R,4S)-2-cyano-4-[(methylsulfonyl)amino]cyclohexyl}-1H-pyrazole-4-carboxamide]?
IC50 [1]: 8 nM; IC50 [2]: 0.9 nM

With `CC(C)(O)[C@H]1CC[C@H](n2cc(C(N)=O)c(Nc3ccc(Cl)cc3)n2)[C@@H](C#N)C1` (single isomer, unassigned) [Example 36-2, 3-(4-chlorophenylamino)-1-((1R,2R,4R or 1S,2S,4S)-2-cyano-4-(2-hydroxypropan-2-yl)cyclohexyl)-1H-pyrazole-4-carboxamide] as the compound, how does the IC50 [1] read?
Its IC50 is 20 nM.

And the IC50 [2]?
The IC50 was 3 nM.

`N#C[C@H]1C[C@H](N2CCC2)CC[C@@H]1n1cc(C(N)=O)c(Nc2ccc(C(F)F)nc2)n1` (single isomer, unassigned) [Example 28-50, 1-[(1S,2S,4R or 1R,2R,4S)-4-azetidin-1-yl-2-cyanocyclohexyl]-3-{[6-(difluoromethyl)pyridin-3-yl]amino}-1H-pyrazole-4-carboxamide] was tested. Which IC50 [1] did it give?
The IC50 was 47 nM.

And the IC50 [2]?
The IC50 was 2 nM.

What does the source list for `CC(C)(c1ccc(Nc2nn([C@H]3CC[C@H](O)C[C@@H]3C#N)cc2C(N)=O)cc1)C(O)C(F)(F)F` (single isomer, unassigned) [Example 33-16, 1-[(1S,2S,4S or 1R,2R,4R)-2-cyano-4-hydroxycyclohexyl]-3-{[4-(3,3,3-trifluoro-(2R or 2S)-hydroxy-1,1-dimethylpropyl)phenyl]amino}-1H-pyrazole-4-carboxamide]?
IC50 [1]: 3 nM; IC50 [2]: 0.7 nM

What does the source list for `CC1CN([C@H]2CC[C@H](n3cc(C(N)=O)c(Nc4ccccc4)n3)[C@@H](C#N)C2)C1` (single isomer, unassigned) [Example 28-141, 1-[(1S,2S,4S or 1R,2R,4R)-2-cyano-4-(3-methylazetidin-1-yl)cyclohexyl]-3-(phenylamino)-1H-pyrazole-4-carboxamide]?
IC50 [1]: 44 nM; IC50 [2]: 1 nM

Which results are given for `CN([C@@H]1CC[C@H](n2cc(C(N)=O)c(Nc3ccc(Cl)cc3)n2)[C@@H](C#N)C1)S(C)(=O)=O` (racemic) [Example 38-5, 3-[(4-chlorophenyl)amino]-1-{(1S,2S,4R and 1R,2R,4S)-2-cyano-4-[methyl(methylsulfonyl)amino]cyclohexyl}-1H-pyrazole-4-carboxamide]?
IC50 [1]: 46 nM; IC50 [2]: 12 nM

How did the IC50 [1] turn out when `N#C[C@H]1CCCC[C@@H]1n1cc(C(N)=O)c(Nc2ccc(Cl)cc2)n1` (single isomer, unassigned) [Example 17-108, 3-[(4-chlorophenyl)amino]-1-[(1S,2S or 1R,2R)-2-cyanocyclohexyl]-1H-pyrazole-4-carboxamide] was run?
The IC50 was 120 nM.

What about the IC50 [2] of the same compound?
Its IC50 is 8 nM.

Which results are given for `N#C[C@H]1C[C@@H](NC2(CO)CC2)CCC1n1cc(C(N)=O)c(Nc2ccc(Cl)cc2)n1` (single isomer, unassigned) [Example 28-223, 3-[(4-chlorophenyl)amino]-1-[(1S,2S,4S or 1R,2R,4R)-2-cyano-4-{[1-(hydroxymethyl)cyclopropyl]a-mino}cyclohexyl]-1H-pyrazole-4-carboxamide]?
IC50 [1]: 14 nM; IC50 [2]: 2 nM

Which IC50 [1] does the source give for `CS(=O)(=O)C1CN(C(=O)[C@H]2CC[C@H](n3cc(C(N)=O)c(Nc4ccc(Cl)cc4)n3)[C@@H](C#N)C2)C1` (single isomer, unassigned) [Example 35-26, 3-[(4-chlorophenyl)amino]-1-[(1S,2S,4S or 1R,2R,4R)-2-cyano-4-{[3-(methylsulfonyl)azetidin-1-yl]carbonyl}cyclohexyl]-1H-pyrazole-4-carboxamide] here?
The IC50 was 49 nM.

What about the IC50 [2] of the same compound?
Its IC50 is 2 nM.

Which IC50 [1] does the source give for `N#C[C@H]1CCCC[C@@H]1n1cc(C(N)=O)c(Nc2cnc3c(c2)CNC3=O)n1` (single isomer, unassigned) [Example 17-76, 1-[(1R,2R or 1S,2S)-2-cyanocyclohexyl]-3-[(7-oxo-6,7-dihydro-5H-pyrrolo[3,4-b]pyridin-3-yl)amino]-1H-pyrazole-4-carboxamide] here?
Its IC50 is 7 nM.

What about the IC50 [2] of the same compound?
The IC50 was 0.55 nM.

How did the IC50 [1] turn out when `CC1(N[C@H]2CCC(n3cc(C(N)=O)c(Nc4ccccc4)n3)[C@@H](C#N)C2)COC1` (single isomer, unassigned) [Example 28-230, 1-{(1S,2S,4S or 1R,2R,4R)-2-cyano-4-[(3-methyloxetan-3-yl)amino]cyclohexyl}-3-(phenylamino)-1H-pyrazole-4-carboxamide] was run?
The IC50 was 24 nM.

What about the IC50 [2] of the same compound?
The IC50 was 4 nM.

`CS(=O)(=O)N[C@H]1CC[C@H](n2cc(C(N)=O)c(Nc3ccc(Cl)cc3)n2)[C@@H](C#N)C1` (racemic) [Example 38-4, 3-[(4-chlorophenyl)amino]-1-{(1S,2S,4R and 1R,2R,4S)-2-cyano-4-[(methylsulfonyl)amino]cyclohexyl}-1H-pyrazole-4-carboxamide] was tested. Which IC50 [1] did it give?
The IC50 was 5 nM.

And the IC50 [2]?
Its IC50 is 0.5 nM.
